Assay results: ChEMBL document CHEMBL1201862, “PubChem BioAssay data set” (2004)
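A five-concentration, 48-hour dose response in 96-well plates underlies each endpoint, interpolated linearly between surrounding concentrations. GI50 marks 50% less growth.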 Active and inactive are the calls of the source. Cut-off read from the data, not from the text of the source: active = GI50 up to about 1.1 µM and inactive = higher.

Assays:
Assay in all cases: NCI-60 cell line screen, 48 h
[1] = system: ACHN
[2] = system: CAKI-1
[3] = system: HCT-116
[4] = system: HOP-62
[5] = system: HOP-92
[6] = system: K562
[7] = system: KM12
[8] = system: LOX IMVI
[9] = system: MOLT-4
[10] = system: Malme-3M
[11] = system: NCI-H522
[12] = system: OVCAR-5
[13] = system: OVCAR-8
[14] = system: PC-3
[15] = system: RXF 393
[16] = system: SK-OV-3
[17] = system: T47D
[18] = system: TK-10
[19] = system: UACC-257
[20] = system: UO-31

Measured: GI50

COC(=O)C[C@H](CCSC)NC(=O)C[C@H](CCSC)NC(=O)C[C@H](CCSC)NC(=O)OC(C)(C)C
inactive: [1] 36.9 µM | [2] > 100 µM | [3] 37.1 µM | [4] 39.4 µM | [5] 16.3 µM | [6] > 100 µM | [7] > 100 µM | [8] > 100 µM | [9] > 100 µM | [10] > 100 µM | [11] 35.2 µM | [12] > 100 µM | [13] 28.7 µM | [14] > 100 µM | [15] 16.1 µM | [16] 20 µM | [17] 63.1 µM | [18] 19.1 µM | [19] 68.5 µM | [20] > 100 µM

N#CC(C#N)=NNc1ccc2cn[nH]c2c1
inactive: [1] 33.1 µM | [2] 29.6 µM | [3] 20.5 µM | [4] > 100 µM | [5] 37.1 µM | [6] 15.7 µM | [7] > 100 µM | [8] 31.4 µM | [9] 21.5 µM | [10] 28.4 µM | [11] 12.2 µM | [12] > 100 µM | [13] 51.4 µM | [14] > 100 µM | [15] 26.6 µM | [16] > 100 µM | [17] 35.7 µM | [18] 26.7 µM | [19] 20.4 µM | [20] 14 µM

COc1ccc(-c2nc3ccc(C)cc3o2)c(OC)c1
inactive: [1] 33 µM | [2] 29.8 µM | [3] 17.9 µM | [4] 26.8 µM | [5] 25.4 µM | [6] 22.1 µM | [7] 19.2 µM | [8] 16.6 µM | [9] 11.3 µM | [10] 21.2 µM | [11] 18.8 µM | [12] 14.9 µM | [13] 26.4 µM | [14] 24.3 µM | [15] 22.5 µM | [16] 41.5 µM | [17] 30.1 µM | [18] 27.4 µM | [19] 17.7 µM | [20] 24 µM

CC(=N)OC1CC2CCC1(C)C2(C)C (stereo not given)
inactive: [1] > 100 µM | [2] > 100 µM | [3] > 100 µM | [4] > 100 µM | [5] > 100 µM | [6] > 100 µM | [7] > 100 µM | [8] > 100 µM | [9] > 100 µM | [10] > 100 µM | [11] > 100 µM | [12] > 100 µM | [13] > 100 µM | [14] > 100 µM | [15] > 100 µM | [16] > 100 µM | [17] > 100 µM | [18] > 100 µM | [19] > 100 µM | [20] > 100 µM
